Consider ten molecules from US20240327408A1, “COMPOUNDS CONTAINING TETRAHYDRONAPHTHYRIDINONE OR TETRAHYDROPYRIDOPYRIMIDINONE SKELETON, PREPARATION METHOD THEREFOR AND PHARMACEUTICAL USE THEREOF” (CHINA PHARMACEUTICAL UNIVERSITY, priority 2021, published 2024).

The IC50 is the midpoint of a concentration-inhibition curve. Read a low IC50 as inhibition by little substance. What is called EC50 is the concentration needed to bring the measured effect to its halfway point. Read a low EC50 as greater potency.

One test concerns MV4; 11 cells. Put plainly: inhibiting the growth of MV4; 11 cells. It is filed as cell-based. The conditions noted are these: Homo sapiens.
The subject of test [1] is xenograft solid tumor models such as colon cancer, breast cancer, and brain tumors. The conditions noted are these: Oncotarget 2016, 7, 74380-74392; cited from earlier work.
The next test addresses T1, hClpP (Homo sapiens, UniProt Q16740).
T1 construct: made in house
As to the kind of experiment: activating ClpP hydrolysis of FITC-casein (fluorescence kinetic detection). In kind it is biochemical. The conditions noted are these: hClpP 1 μM, FITC-Casein 4 μM, 37° C. The procedure, abridged: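 hClpP at 1 μM final preincubated with compounds (assay-buffer dilutions 200 μM–2 nM, before mixing) 30 min at 37 °C, then 4 μM final FITC-casein added. Fluorescence read kinetically at 37 °C every 1 min for 15 min, duplicate wells.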

A value given as a limit tells only on which side of the number the result lay.

T1 sequence (Q16740 57-277): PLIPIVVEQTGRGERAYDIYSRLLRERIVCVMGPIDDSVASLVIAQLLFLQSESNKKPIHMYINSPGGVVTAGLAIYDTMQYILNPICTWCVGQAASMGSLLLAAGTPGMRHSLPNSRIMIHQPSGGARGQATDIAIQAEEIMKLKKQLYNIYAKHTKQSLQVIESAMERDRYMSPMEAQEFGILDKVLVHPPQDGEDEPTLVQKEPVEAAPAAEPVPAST

`Cc1ccccc1CN1C(=O)C2=C(CCN(Cc3ccccc3)C2)N2CCN=C12` [ONC201, reference compound] returned an IC50 in the test on MV4; 11 cells of 100 to 10000 nM. For the same molecule, the “tumor regression in xenograft solid tumor models” value in test [1] is “cause tumor regression”.

In turn, `Cc1noc(C)c1CN1CCc2c(c(=O)n(Cc3ccccc3)c3ncccc23)C1` [Compound I-34, 6-benzyl-3-((3,5-dimethylisoxazol-4-yl)methyl)-2,3,4,6-tetrahydropyrido[3,4-c][1,8]naphthyridine-5-(1H)-one] showed a concentration for half-maximal inhibition (IC50) with MV4; 11 cells of 1000 to 10000 nM. Besides, the EC50 on hClpP lay within 10000 to 100000 nM.

`Cc1ccc(Cn2c(=O)c3c(n4ccnc24)CCN(Cc2cccc(C)c2)C3)cc1` [Compound I-135, 7-(3-methylbenzyl)-4-(4-methylbenzyl)-6,7,8,9-tetrahydroimidazo[1,2-a]pyrido[3,4-e]pyrimidine-5(4H)-one] came in with an IC50 in the test with MV4; 11 cells of less than 1000 nM. Besides, the EC50 on hClpP is less than 1000 nM.

Consider `O=c1c2c(c3cccnc3n1Cc1ccccc1Br)CCN(Cc1ccccc1)C2` [Compound I-42, 3-benzyl-6-(2-bromobenzyl)-2,3,4,6-tetrahydropyrido[3,4-c][1,8]naphthyridine-5-(1H)-one], for which, in the test on MV4; 11 cells, the IC50 was less than 1000 nM. On hClpP, the EC50 is 1000 to 10000 nM.

The molecule `O=c1c2c(c3cccnc3n1Cc1ccccc1)CCN(Cc1ccncc1)C2` [Compound I-29, 6-benzyl-3-(pyridin-4-ylmethyl)-2,3,4,6-tetrahydropyrido[3,4-c][1,8]naphthyridine-5-(1H)-one] yielded an IC50 in the test on MV4; 11 cells of 1000 to 10000 nM. The molecule also had an EC50 on hClpP of 10000 to 100000 nM.

With `O=c1c2c(c3sccc3n1Cc1ccc(C(F)(F)F)cc1)CCN(Cc1ccccc1)C2` [Compound I-103, 7-benzyl-4-(4-trifluoromethylbenzyl)-6,7,8,9-tetrahydrothieno[3,2-C][2,7]naphthyridine-5(4H)-one], in the test with MV4; 11 cells, the IC50 was less than 1000 nM. The molecule also returned an EC50 at hClpP of less than 1000 nM.

With `O=c1c2c(c3cccnc3n1Cc1ccccc1)CCN(Cc1cccc(Br)c1)C2` [Compound I-14, 6-benzyl-3-(3-bromobenzyl)-2,3,4,6-tetrahydropyrido[3,4-c][1,8]naphthyridine-5-(1H)-one], the IC50 in the test with MV4; 11 cells is less than 1000 nM. On hClpP, this molecule gave a concentration for a half-maximal effect (EC50) of less than 1000 nM.

The molecule `O=c1c2c(c3cccnc3n1Cc1cccc(Br)c1)CCN(Cc1ccccc1)C2` [Compound I-48, 3-benzyl-6-(3-bromobenzyl)-2,3,4,6-tetrahydropyrido[3,4-c][1,8]naphthyridine-5-(1H)-one] returned an IC50 in the test on MV4; 11 cells of less than 1000 nM. This molecule gave an EC50 at hClpP of less than 1000 nM.

In the test with MV4; 11 cells, `Cn1ccnc1Cn1c(=O)c2c(c3cccnc31)CCN(Cc1ccccc1)C2` [Compound I-65, 3-benzyl-6-((1-methyl-1H-imidazol-2-yl)methyl)-2,3,4,6-tetrahydropyrido[3,4-c][1,8]naphthyridine-5-(1H)-one] displayed an IC50 of 1000 to 10000 nM. The molecule further registered an EC50 at hClpP of 10000 to 100000 nM.

`N#Cc1cccc(CN2CCc3c(c(=O)n(Cc4ccc(Cl)cc4)c4ncnn34)C2)c1` [Compound I-155, 4-(4-chlorobenzyl)-7-(3-cyanobenzyl)-6,7,8,9-tetrahydropyrido[3,4-e][1,2,4]triazolo[1,5-a]pyrimidine-5(4H)-one]: in the test on MV4; 11 cells, the IC50 lay within 1000 to 10000 nM. This molecule also gave an EC50 at hClpP of 1000 to 10000 nM.
